US20250154144A1 (CHILDREN'S HOSPITAL MEDICAL CENTER, priority 2021, published 2025)
Like-named read-outs stand apart in the source and are kept apart here.

Experiments:
[1] = test system: MOLM14(D835Y) cells; assay type: cell-based; conditions: MOLM14(D835Y) cells; for Excess HSA Score: 10 × 10
[2] = test system: MOLM14 F691L cells; assay: cells; assay type: cell-based; conditions: Homo sapiens, MOLM-14, 48 h, 48 hours, Cell Titer Glo; read-out: MOLM14 F691L IC50
[3] = test system: THP1 cells; assay: Combination drug screening, Cell Titer Glo, 10 × 10 matrix, THP1 cells; assay type: cell-based
[4] = molecular target: IRAK1 (Homo sapiens, UniProt P51617); assay: RBC HotSpot Kinase Assay, IRAK1; conditions: IRAK1 IC50
Chain of IRAK1 (P51617 whole entry): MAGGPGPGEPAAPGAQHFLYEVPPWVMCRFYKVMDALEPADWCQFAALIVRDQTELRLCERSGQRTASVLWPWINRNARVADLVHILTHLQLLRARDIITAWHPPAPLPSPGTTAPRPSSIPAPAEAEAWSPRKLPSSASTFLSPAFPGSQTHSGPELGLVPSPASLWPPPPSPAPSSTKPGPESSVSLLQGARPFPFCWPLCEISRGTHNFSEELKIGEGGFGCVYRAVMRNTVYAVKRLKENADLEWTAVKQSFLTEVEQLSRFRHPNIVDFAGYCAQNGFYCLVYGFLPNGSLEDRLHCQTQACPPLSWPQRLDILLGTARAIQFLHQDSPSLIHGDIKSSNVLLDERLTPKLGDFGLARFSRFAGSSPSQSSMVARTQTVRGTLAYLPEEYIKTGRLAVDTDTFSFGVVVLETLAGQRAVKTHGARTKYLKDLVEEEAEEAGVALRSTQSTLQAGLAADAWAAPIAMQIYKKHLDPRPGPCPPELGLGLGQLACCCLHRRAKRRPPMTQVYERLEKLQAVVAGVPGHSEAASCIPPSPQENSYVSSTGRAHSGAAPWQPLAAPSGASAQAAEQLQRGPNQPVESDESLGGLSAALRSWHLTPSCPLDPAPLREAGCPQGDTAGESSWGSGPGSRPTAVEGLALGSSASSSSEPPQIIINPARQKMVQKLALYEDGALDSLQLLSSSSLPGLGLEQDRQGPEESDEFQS

[5] = molecular target: T1, FLT3 (Homo sapiens, UniProt P36888); assay: RBC HotSpot Kinase Assay, FLT3; conditions: FLT3 IC50
T1 sequence (P36888 610-943 limits assumed): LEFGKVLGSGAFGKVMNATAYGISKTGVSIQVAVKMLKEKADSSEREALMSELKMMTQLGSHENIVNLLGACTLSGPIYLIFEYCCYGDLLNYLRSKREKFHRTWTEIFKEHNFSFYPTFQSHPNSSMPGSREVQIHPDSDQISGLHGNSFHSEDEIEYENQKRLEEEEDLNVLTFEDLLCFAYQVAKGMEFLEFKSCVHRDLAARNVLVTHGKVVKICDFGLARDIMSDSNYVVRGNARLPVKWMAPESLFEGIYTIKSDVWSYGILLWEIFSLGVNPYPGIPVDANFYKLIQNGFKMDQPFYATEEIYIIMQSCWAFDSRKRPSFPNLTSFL

[6] = molecular target: T2, IRAK4 (Homo sapiens, UniProt Q9NWZ3); assay: RBC HotSpot Kinase Assay, IRAK4; conditions: IRAK4 IC50
T2 sequence (Q9NWZ3 1-460): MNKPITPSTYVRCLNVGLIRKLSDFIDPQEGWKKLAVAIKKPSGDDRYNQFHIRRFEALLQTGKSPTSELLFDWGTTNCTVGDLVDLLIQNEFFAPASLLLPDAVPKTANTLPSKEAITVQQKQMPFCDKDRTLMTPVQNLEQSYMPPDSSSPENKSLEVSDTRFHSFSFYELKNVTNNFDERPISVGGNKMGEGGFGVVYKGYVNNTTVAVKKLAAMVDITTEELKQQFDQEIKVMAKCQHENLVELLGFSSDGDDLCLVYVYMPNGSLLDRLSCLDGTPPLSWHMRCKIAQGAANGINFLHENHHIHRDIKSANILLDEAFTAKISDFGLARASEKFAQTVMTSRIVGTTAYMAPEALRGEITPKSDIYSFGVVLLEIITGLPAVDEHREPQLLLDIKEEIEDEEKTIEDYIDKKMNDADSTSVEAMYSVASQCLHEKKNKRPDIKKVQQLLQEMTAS

[7] = test system: MOLM14 D835Y cells; assay: cells; assay type: cell-based; conditions: Homo sapiens, MOLM-14, 48 h, 48 hours, Cell Titer Glo; read-out: MOLM14 D835Y IC50
[8] = combination with (+)-BAY-1251152
[9] = combination with Eprenetapopt/APR-246
[10] = combination with Venetoclax (ABT-199)
[11] = with (+)-BAY-1251152, single compound range 0-10,000 nM or 0-20,000 nM
[12] = with AMG-232, single compound range 0-10,000 nM or 0-20,000 nM
[13] = with AZD-5363, single compound range 0-10,000 nM or 0-20,000 nM
[14] = with Eprenetapopt/APR-246, single compound range 0-10,000 nM or 0-20,000 nM
[15] = with Ivosidenib, single compound range 0-10,000 nM or 0-20,000 nM
[16] = with Lenalidomide, single compound range 0-10,000 nM or 0-20,000 nM
[17] = with Palbociclib, single compound range 0-10,000 nM or 0-20,000 nM
[18] = with Prednisolone, single compound range 0-10,000 nM or 0-20,000 nM
[19] = with SNDX-5613, single compound range 0-10,000 nM or 0-20,000 nM
[20] = with TNO-155, single compound range 0-10,000 nM or 0-20,000 nM
[21] = with Trametinib, single compound range 0-10,000 nM or 0-20,000 nM
[22] = with Ulixertinib, single compound range 0-10,000 nM or 0-20,000 nM
[23] = with Venetoclax (ABT-199), single compound range 0-10,000 nM or 0-20,000 nM

COc1ccn2c(-c3cncc(N[C@@H]4CCCNC4)n3)cnc2c1 [Compound 5, (R)-6-(7-methoxyimidazo[1,2-a]pyridin-3-yl)-N-(piperidin-3-yl)pyrazin-2-amine]
Excess HSA Score [1, 8]: 11.13
Excess HSA Score ([1]; combination with AMG-232): −114.6
Excess HSA Score ([1]; combination with AZD-5363): −297.4
Excess HSA Score [1, 9]: −154.6246
Excess HSA Score ([1]; combination with Ivosidenib): −34.74
Excess HSA Score ([1]; combination with Lenalidomide): −84.4505
Excess HSA Score ([1]; combination with Palbociclib): −483.7
Excess HSA Score ([1]; combination with Prednisolone): −69.46
Excess HSA Score ([1]; combination with SNDX-5613): −465.3
Excess HSA Score ([1]; combination with TNO-155): −575.9
Excess HSA Score ([1]; combination with Trametinib): 213.7
Excess HSA Score ([1]; combination with Ulixertinib): −1042
Excess HSA Score [1, 10]: −862.5
Comments [1, 8]: Antagonistic
Comments ([1]; combination with Ulixertinib): Synergistic
IC50 [2]: 55 nM
Comments [3, 11]: Synergistic
Excess HSA Score [3, 11]: −264.5
Comments [3, 12]: Antagonistic
Excess HSA Score [3, 12]: 105.5
Comments [3, 13]: Synergistic
Excess HSA Score [3, 13]: −94.57
Comments [3, 14]: Antagonistic
Excess HSA Score [3, 14]: 163.2
Comments [3, 15]: Antagonistic
Excess HSA Score [3, 15]: 190
Comments [3, 16]: Antagonistic
Excess HSA Score [3, 16]: 264.6
Comments [3, 17]: Antagonistic
Excess HSA Score [3, 17]: 624.7438
Comments [3, 18]: Antagonistic
Excess HSA Score [3, 18]: 31.68
Comments [3, 19]: Antagonistic
Excess HSA Score [3, 19]: 340
Comments [3, 20]: Antagonistic
Excess HSA Score [3, 20]: 28.11
Comments [3, 21]: Antagonistic
Excess HSA Score [3, 21]: 374.3
Comments [3, 22]: Antagonistic
Excess HSA Score [3, 22]: 565.8
Comments [3, 23]: Synergistic
Excess HSA Score [3, 23]: −1771.116
IC50 [4]: 62 nM
IC50 [5]: < 0.5 nM
IC50 [6]: 1 nM
IC50 [7]: 24 nM

FC(F)COc1ccn2c(-c3ccnc(N[C@H]4CNCC[C@@H]4F)n3)cnc2c1 [Compound 33, 4-(7-(2,2-difluoroethoxy)imidazo[1,2-a]pyridin-3-yl)-N-((3S,4S)-4-fluoropiperidin-3-yl)pyrimidin-2-amine]
Excess HSA Score [1, 8]: 684.1
Excess HSA Score ([1]; combination with AMG-232): −604.4
Excess HSA Score ([1]; combination with AZD-5363): 320.5
Excess HSA Score [1, 9]: −279.9
Excess HSA Score ([1]; combination with Ivosidenib): −12.14
Excess HSA Score ([1]; combination with Lenalidomide): −11.33
Excess HSA Score ([1]; combination with Palbociclib): 347
Excess HSA Score ([1]; combination with Prednisolone): −659.1
Excess HSA Score ([1]; combination with SNDX-5613): 95.25
Excess HSA Score ([1]; combination with TNO-155): 177.1
Excess HSA Score ([1]; combination with Trametinib): −226.8
Excess HSA Score ([1]; combination with Ulixertinib): −441.5
Excess HSA Score [1, 10]: −315.6
Comments ([1]; combination with Prednisolone): Synergistic
Comments ([1]; combination with SNDX-5613): Antagonistic
IC50 [2]: 55 nM
Excess HSA Score ([3]; THP1 cells, 10 × 10, combination with (+)-BAY-1251152): −13.85
Excess HSA Score ([3]; THP1 cells, 10 × 10, combination with AMG-232): −215.5
Excess HSA Score ([3]; THP1 cells, 10 × 10, combination with AZD-5363): −132.5
Excess HSA Score ([3]; THP1 cells, 10 × 10, combination with Eprenetapopt/APR-246): 545.1487
Excess HSA Score ([3]; THP1 cells, 10 × 10, combination with Ivosidenib): −154.2
Excess HSA Score ([3]; THP1 cells, 10 × 10, combination with Lenalidomide): 178.6
Excess HSA Score ([3]; THP1 cells, 10 × 10, combination with Palbociclib): −194.6
Excess HSA Score ([3]; THP1 cells, 10 × 10, combination with Prednisolone): 467.2
Excess HSA Score ([3]; THP1 cells, 10 × 10, combination with SNDX-5613): 587.7
Excess HSA Score ([3]; THP1 cells, 10 × 10, combination with TNO-155): −195.2
Excess HSA Score ([3]; THP1 cells, 10 × 10, combination with Trametinib): −463.7
Excess HSA Score ([3]; THP1 cells, 10 × 10, combination with Ulixertinib): −63.1
Excess HSA Score ([3]; THP1 cells, 10 × 10, combination with Venetoclax (ABT-199)): −1595
Comments ([3]; THP1 cells, combination with Lenalidomide): Antagonistic
Comments ([3]; THP1 cells, combination with Venetoclax (ABT-199)): Synergistic
IC50 [4]: 30 nM
IC50 [5]: < 0.5 nM
IC50 [6]: 2 nM
IC50 [7]: 7 nM
